For assay [1], the target named is T1, Ubiquitin-conjugating enzyme E2 N (Homo sapiens, UniProt P61088).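 Also: Dose-response confirmation in a TR-FRET assay detecting UBC13-driven polyubiquitin chain formation, inhibition measured.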
T1 sequence (P61088 whole entry): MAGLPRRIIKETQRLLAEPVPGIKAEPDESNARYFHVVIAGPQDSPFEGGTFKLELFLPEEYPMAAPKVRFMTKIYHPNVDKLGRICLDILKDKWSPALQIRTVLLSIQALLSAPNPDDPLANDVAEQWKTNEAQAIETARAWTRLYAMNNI
It is filed as functional.

The target of assay [2] is T2, Serine/threonine-protein phosphatase (Candida dubliniensis (strain CD36 / CBS 7987 / NCPF 3949 / NRRLY-17841) (Yeast), UniProt B9W6M3).
T2 sequence (B9W6M3 whole entry): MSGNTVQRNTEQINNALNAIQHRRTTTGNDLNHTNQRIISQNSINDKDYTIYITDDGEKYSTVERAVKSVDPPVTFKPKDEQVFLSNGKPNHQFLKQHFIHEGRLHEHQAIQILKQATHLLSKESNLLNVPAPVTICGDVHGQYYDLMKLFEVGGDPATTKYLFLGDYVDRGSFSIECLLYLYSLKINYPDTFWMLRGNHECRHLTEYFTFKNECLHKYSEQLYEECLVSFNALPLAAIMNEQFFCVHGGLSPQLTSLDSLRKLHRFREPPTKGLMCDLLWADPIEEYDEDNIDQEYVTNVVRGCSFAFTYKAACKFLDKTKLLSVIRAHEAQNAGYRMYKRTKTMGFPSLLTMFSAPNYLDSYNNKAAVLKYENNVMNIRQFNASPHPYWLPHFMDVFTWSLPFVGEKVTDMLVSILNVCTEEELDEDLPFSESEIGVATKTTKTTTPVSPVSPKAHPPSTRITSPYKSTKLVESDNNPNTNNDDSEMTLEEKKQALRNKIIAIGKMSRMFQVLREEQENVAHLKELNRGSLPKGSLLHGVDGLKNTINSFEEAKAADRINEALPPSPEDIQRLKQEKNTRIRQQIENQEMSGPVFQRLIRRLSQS
Kind of assay: calcineurin pathway inhibitors in yeast reporter, dose response, S. cerevisiae, CDRE-lacZ, luminescence, secondary (AID 2388).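 Also: yeast reporter cells carrying a calcineurin-responsive lacZ construct stimulated with calcium chloride; luminescent beta-galactosidase reporter signal in whole cells rather than isolated phosphatase activity; potency for inhibition where a drop in reporter signal means calcineurin blockade.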 It is filed as functional, cell-based.

Assay [3] in a line: inhibitors of firefly luciferase expression or activity, dose response, H4 neuroglioma cells, luminescence (AID 1990). The class given is functional, cell-based.
The nature of assay [4]: C. albicans growth with fluconazole, confirmation, fluorescence, retest (AID 2467). The class given is functional, cell-based.
The target in assay [5] is ATP-dependent molecular chaperone HSP82 (Candida albicans (strain WO-1) (Yeast), UniProt C4YTQ8). Kind of assay: loss of DOC-induced GRE-beta-galactosidase reporter signal, dose response, Hsp90 inhibitor project, S. cerevisiae, luminescence (AID 2400).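 Also: beta-galactosidase luminescence from glucocorticoid response element reporter as proxy for Hsp90 function; inhibitor potency where signal loss means Hsp90 inhibition.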 It is filed as functional, cell-based.
In assay [6] the test system is Vero. The assay is described as follows: cells. Particulars: Chlorocebus sabaeus. The class given is functional, cell-based.
Assay [7] is described as follows: NIH-3T3 fibroblast cytotoxicity, dose response, cytotoxicity control, cell-based, fluorescence, Alamar Blue, secondary assay (AID 2327).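 Also: NIH-3T3 mouse fibroblasts cultured with fluconazole at 8 µg/mL.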 It is filed as functional. A general note: Resazurin is reduced to fluorescent resorufin, in cell work by metabolically active cells.
Assay [8] deals with Vero. Kind of assay: cells. Particulars: Chlorocebus sabaeus. The class given is functional.
A short description of assay [9]: inhibitors of SNCA 5'UTR-driven reporter translation, confirmation, H4 neuroglioma cells, luminescence (AID 1988). It is filed as functional, cell-based.
Assay [10] in a line: Luminescence Cell-Based Dose Response HTS to Identify Inhibitors of 5'UTR Stem-Loop Driven Prion Protein mRNA Translation in H4 Neuroglioblastoma Cells. [Related pubchem assays: 1827 (Project Summary), 1813 (Primary HTS)]. The class given is functional.
Assay [11] concerns the target T3, Apoptotic protease-activating factor 1 (Homo sapiens, UniProt O14727).
T3 sequence (O14727 whole entry): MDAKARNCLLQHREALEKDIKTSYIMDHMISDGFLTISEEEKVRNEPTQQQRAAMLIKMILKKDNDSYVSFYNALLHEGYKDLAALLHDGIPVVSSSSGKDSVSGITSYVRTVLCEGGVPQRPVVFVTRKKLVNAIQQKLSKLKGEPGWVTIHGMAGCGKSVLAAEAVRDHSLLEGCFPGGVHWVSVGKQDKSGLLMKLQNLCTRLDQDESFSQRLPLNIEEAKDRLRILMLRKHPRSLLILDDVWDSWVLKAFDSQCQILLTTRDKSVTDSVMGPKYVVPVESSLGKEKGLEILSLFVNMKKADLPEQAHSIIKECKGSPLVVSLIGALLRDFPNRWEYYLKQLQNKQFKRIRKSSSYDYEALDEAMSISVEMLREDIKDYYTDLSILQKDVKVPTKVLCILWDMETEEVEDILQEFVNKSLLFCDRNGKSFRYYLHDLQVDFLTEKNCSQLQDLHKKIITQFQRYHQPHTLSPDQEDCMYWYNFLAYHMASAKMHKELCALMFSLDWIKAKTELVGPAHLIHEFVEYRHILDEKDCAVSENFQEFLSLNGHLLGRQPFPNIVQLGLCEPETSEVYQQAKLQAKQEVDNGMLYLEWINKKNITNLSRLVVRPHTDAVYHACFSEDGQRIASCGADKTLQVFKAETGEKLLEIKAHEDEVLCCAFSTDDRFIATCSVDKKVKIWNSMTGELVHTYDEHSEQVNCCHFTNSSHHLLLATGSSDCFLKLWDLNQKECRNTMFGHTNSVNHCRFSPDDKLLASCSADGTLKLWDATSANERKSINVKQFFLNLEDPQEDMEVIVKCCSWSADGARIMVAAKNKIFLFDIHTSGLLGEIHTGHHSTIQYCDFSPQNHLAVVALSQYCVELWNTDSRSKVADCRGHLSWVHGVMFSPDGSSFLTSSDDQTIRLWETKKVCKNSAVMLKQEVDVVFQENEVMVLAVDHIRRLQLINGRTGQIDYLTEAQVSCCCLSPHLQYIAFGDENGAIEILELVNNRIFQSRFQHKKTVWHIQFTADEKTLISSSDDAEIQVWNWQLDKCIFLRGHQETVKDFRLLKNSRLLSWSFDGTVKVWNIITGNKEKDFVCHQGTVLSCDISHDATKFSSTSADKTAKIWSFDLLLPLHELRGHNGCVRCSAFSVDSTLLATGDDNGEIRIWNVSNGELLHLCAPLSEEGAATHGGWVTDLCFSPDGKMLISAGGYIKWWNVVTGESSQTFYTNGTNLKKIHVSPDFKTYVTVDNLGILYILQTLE
It is filed as functional.

Assay [12] deals with T4, Endoribonuclease toxin MazF (Escherichia coli K-12, UniProt P0AE70).
T4 sequence (P0AE70 whole entry): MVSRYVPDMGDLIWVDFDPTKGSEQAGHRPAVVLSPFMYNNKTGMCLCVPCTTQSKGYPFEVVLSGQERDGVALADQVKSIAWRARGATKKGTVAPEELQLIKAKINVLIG
The assay is described as follows: fluorescent RNA oligo signal without MazF, dose response, counter-screen for MazEF activator project, biochemical, fluorescence, single-stranded RNase substrate (AID 588502). It is filed as functional. (A counterscreen serves to expose hits that act by an unwanted route or on another target.)

Assay [13] addresses T4, Endoribonuclease toxin MazF. Kind of assay: MazF toxin RNase activators, dose response, biochemical, fluorescence, single-stranded RNA substrate, uHTS hits (AID 588481). The class given is functional.
Assay [14] concerns H4. The assay is described as follows: Luminescence Cell-Based Dose Response HTS to Identify Activators of 5'UTR Stem-Loop Driven Prion Protein mRNA Translation in H4 Neuroglioblastoma Cells. [Related pubchem assays: 1829 (Project Summary), 1814 (Primary HTS)]. It is filed as functional. To be noted: Homo sapiens.
Assay [15] can be described thus: Luminescence Cell-Based Dose Response HTS to Identify Activators of Luciferase Translation or Activity in H4 […] Cells. [Related pubchem assays: 1829 (Project Summary), 1814 (Primary HTS)]. It is filed as functional.
Assay [16] can be described thus: Luminescence Cell-Based Dose Confirmation HTS to Identify Activators of 5'UTR Stem-Loop Driven Alpha-Synuclein mRNA Translation in H4 Neuroglioblastoma Cells. [Related pubchem assays: 1829 (Project Summary), 1814 (Primary HTS)]. The class given is functional.
In assay [17] the target is T5, Sentrin-specific protease 8 (Homo sapiens, UniProt Q96LD8).
T5 sequence (Q96LD8 whole entry): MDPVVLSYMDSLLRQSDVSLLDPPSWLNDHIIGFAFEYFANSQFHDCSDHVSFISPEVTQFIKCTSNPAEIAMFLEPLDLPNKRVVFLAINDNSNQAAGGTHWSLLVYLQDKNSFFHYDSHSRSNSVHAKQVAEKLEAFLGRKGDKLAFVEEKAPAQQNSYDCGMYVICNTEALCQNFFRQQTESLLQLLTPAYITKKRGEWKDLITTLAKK
It is filed as functional.

In another assay the target is T6, Caspase-6 (Homo sapiens, UniProt P55212).
T6 sequence (P55212 whole entry): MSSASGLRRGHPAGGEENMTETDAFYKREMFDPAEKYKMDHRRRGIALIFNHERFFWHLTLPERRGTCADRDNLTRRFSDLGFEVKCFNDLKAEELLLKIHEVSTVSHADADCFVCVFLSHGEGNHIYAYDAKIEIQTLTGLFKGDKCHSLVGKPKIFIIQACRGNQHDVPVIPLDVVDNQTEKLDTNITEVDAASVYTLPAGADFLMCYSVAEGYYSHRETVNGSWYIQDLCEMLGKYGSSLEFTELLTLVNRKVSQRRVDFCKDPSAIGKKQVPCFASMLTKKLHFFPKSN
The assay is described as follows: human caspase-6 inhibitors, dose response, biochemical, VEID-R110 fluorescence, cherry-pick (AID 720632).

In a further assay the test system is P388/ADR. Kind of assay: cells. It is filed as functional. To be noted: Mus musculus.
In the next assay the test system is SN12K1. The assay is described as follows: cells. The class given is functional. To be noted: Homo sapiens.
The target in assay [18] is T5, Sentrin-specific protease 8. The class given is functional. The source holds these as a separate data set.
The next assay has as its system P388. Kind of assay: cells. The class given is functional. To be noted: Mus musculus.
In assay [19] the target is Dual specificity tyrosine-phosphorylation-regulated kinase 1A (Rattus norvegicus, UniProt Q63470). The class given is biochemical, Homo sapiens.
A short description of assay [20]: cytotoxicity in HEK-293T cells, dose response, cytotoxicity control for TCR NF-kB inhibitor project, luminescence, T-cell screen hits (AID 489026).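 Also: cells exposed to compound about 14 hours before the viability readout.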 The class given is functional, cell-based.
The subject of assay [21] is H4. The assay is described as follows: Inhibitors of Prion Protein 5' UTR mRNA Measured in Cell-Based System Using Plate Reader - 2078-01_Inhibitor_Dose_DryPowder_Activity. [Related pubchem assays (depositor defined):AID488894]. It is filed as functional. To be noted: Homo sapiens.
Assay [22] is described as follows: HEp-2 cell cytotoxicity, dose response, cytotoxicity control for RSV inhibitor project, HTS (AID 2410). The class given is functional. Particulars: human respiratory syncytial virus.

SMILES strings stand for the structures. Calls of active or inactive are those of the source. Bounds are passed on as bounds.

By IC50 is commonly meant the midpoint of a concentration-inhibition curve. As usually defined, the EC50 is the concentration giving half of the maximal effect. For orientation: CC50 means the concentration giving 50% cytotoxicity. By AC50 is commonly meant the concentration giving half of the maximal activity seen. The term GI50 denotes the concentration giving 50% growth inhibition.

Sequence of ATP-dependent molecular chaperone HSP82 (C4YTQ8 whole entry): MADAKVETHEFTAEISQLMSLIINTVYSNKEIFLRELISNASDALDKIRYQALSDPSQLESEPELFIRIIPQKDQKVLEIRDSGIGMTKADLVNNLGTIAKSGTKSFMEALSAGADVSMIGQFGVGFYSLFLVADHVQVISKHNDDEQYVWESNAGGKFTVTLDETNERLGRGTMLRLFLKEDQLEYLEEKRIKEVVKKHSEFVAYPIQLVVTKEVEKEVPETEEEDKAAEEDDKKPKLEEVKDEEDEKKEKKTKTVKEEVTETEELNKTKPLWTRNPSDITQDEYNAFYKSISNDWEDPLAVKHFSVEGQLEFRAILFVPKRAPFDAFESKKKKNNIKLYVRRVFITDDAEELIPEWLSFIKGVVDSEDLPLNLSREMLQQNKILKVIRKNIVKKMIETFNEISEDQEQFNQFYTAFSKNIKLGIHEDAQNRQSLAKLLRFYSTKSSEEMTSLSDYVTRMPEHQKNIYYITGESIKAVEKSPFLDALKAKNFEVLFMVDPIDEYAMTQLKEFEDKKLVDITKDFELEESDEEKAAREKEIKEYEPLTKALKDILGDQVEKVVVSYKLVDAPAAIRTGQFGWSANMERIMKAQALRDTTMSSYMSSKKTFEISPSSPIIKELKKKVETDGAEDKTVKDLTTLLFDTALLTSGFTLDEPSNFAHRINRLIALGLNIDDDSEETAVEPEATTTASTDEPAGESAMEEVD

Regarding `CCCOc1ccc(C(=O)NNC(=S)NC(C)=O)cc1`, the IC50 in assay [1] was > 20 µM (inactive); with Vero [6], 23.6 µM (active). Also, the EC50 in [2] is > 180 µM (inactive); in assay [3], 14.2 µM (active); in assay [4] it was 0.372 µM (active); in assay [5], > 160 µM (inactive); in assay [7], > 160 µM (inactive); in assay [9], 9.77 µM (active). In addition, the EC50 in [10] is 14.2 µM (active). The half-maximal cytotoxic concentration (CC50) in the assay with Vero [8] was > 25 µM (active).

For `CC(C)N(Cc1cc2ccccc2nc1O)C(=O)C1CCCCC1`, the half-inhibitory concentration (IC50) in assay [11] is 13.6 µM (active).

Turning to `N#C/C(=C\c1cn(-c2ccccc2)nc1-c1cc2ccccc2o1)c1nc2ccccc2[nH]1`, the 50% effective concentration (EC50) in assay [12] is 7.03 µM (active); in [13], > 99 µM (inactive).

`COc1cc(/C=C2/C(=O)N(C)C(=S)N2C)ccc1OCc1cccc(F)c1`: the EC50 in [12] was > 99 µM (inactive); in assay [13] it was > 99 µM (inactive); in the assay with H4 [14], 4.24 µM (active); in assay [15], > 120 µM (not active); in assay [16], > 120 µM (not active).

As for `Cn1c(=O)[nH]c2nncnc2c1=O`, the half-inhibitory concentration (IC50) in assay [17] was 1.62 µM (active); in [11], 15.4 µM (active); in [18], 2.08 µM (active). Also, on Caspase-6, the AC50 was 7.06 µM (active). Further, the GI50 was 213 µM (inactive) with P388/ADR, 65.8 µM (inactive) in the assay with SN12K1 and 25.8 µM (inactive) with P388.

For the molecule `c1cncc(-c2csc(-c3cccnc3)n2)c1`, the concentration at half-maximal activity (AC50) in [19] is 0.676 µM (active).

Turning to `C=CCn1c(SCc2c(C)noc2C)nc2ccccc2c1=O`, the IC50 in assay [20] is > 80 µM (inactive). For the same molecule, the AC50 in the assay with H4 [21] was 0.574 µM (active).

As for `O=C(Nc1nnc(SCc2ccc(Cl)cc2)s1)c1cnccn1`, the EC50 in assay [2] was > 180 µM (inactive); in [4], 0.57 µM (active); in assay [5] it was 24.4 µM (active); in assay [7], > 160 µM (inactive).

Consider `O=C(Cc1c[nH]c2ccccc12)Nc1nnc(C2CC2)s1`, for which the half-maximal cytotoxic concentration (CC50) in [22] is 21.6 µM (active). Moreover, the IC50 was 39.1 µM (active) in “cells” and 16.6 µM (active) in the assay on Vero [6].

`c1cncc(-c2ccc3[nH]ccc3c2)c1`: the half-maximal activity concentration (AC50) in assay [19] was 6.97 µM (active).

Values taken from ChEMBL document CHEMBL1201862, “PubChem BioAssay data set” (2004).
